The nature of data set [1]: In vivo pharmacokinetics IV and PO (Table 1A). On the set-up: species or system mouse. To be noted: for Tmax: PO, mouse plasma.
The target of the next data set is T1, MFN2 (Mus musculus, UniProt Q80U63).
T1 sequence (Q80U63 1-757): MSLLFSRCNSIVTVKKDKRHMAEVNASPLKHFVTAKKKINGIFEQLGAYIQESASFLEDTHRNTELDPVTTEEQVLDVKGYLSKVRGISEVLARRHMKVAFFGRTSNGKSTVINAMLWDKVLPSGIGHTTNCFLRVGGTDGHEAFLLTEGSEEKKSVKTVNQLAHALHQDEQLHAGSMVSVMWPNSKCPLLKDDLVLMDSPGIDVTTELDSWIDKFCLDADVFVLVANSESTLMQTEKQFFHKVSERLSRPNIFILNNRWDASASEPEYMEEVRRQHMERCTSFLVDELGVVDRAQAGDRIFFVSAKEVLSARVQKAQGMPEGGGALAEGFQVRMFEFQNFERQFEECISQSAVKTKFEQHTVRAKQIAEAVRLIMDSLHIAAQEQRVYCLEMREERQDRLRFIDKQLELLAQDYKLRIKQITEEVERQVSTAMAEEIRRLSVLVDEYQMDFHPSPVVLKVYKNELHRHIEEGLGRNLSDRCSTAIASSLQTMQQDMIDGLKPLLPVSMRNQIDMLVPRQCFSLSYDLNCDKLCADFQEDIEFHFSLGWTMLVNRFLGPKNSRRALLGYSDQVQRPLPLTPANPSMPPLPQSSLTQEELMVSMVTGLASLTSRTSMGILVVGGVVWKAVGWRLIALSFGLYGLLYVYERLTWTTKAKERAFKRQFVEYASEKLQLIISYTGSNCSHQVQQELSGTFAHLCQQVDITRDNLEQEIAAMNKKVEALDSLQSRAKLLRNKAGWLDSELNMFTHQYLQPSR
The data set is described as follows: Mitofusin activation (MFN activity), EC50. To be noted: stereoisomeric configurations of Compound 2. It counts as cell-based. As for the experimental part: Mitochondria were then stained with MitoTracker Orange (200 nM; M7510; Invitrogen, Carlsbad, CA, USA). Nuclei were stained with Hoescht (10 μg/ml; Invitrogen, Thermo Fisher Scientific Cat: #H3570). […] Response curves were interpolated using the sigmoidal model using Prism 8 software.
Testing details for the MFN activity and PAMPA assay are provided in U.S. Patent Applications 2020/034566 and 2020/0345669, incorporated herein by reference.

Like-named read-outs stand apart in the source and are kept apart here.

Consider `O=C(N[C@H]1CC[C@H](O)CC1)C1CC1CCCc1ccccc1` (mixture of isomers) [Compound 2, N-((1r,4r)-4-hydroxycyclohexyl)-2-(3-phenylpropyl)cyclopropane-1-carboxamide], for which the Vd in data set [1] (male, CD-1, mouse, plasma, iv, 10 mg/kg, read-out: Vdss) turned out to be 0.6 L/kg. The bioavailability (commonly the share of a dose that reaches the circulation, judged against a reference dose that is usually intravenous) in data set [1] (male, CD-1, mouse, plasma, po, 50 mg/kg) was found to be 59%. Besides, the MRT (usually a mean duration of stay, worked out from the concentration-time curve) in data set [1] (male, CD-1, mouse, plasma, single 50 mg/kg oral dose, read-out: mean tissue residence time (MRT)) was 215 min. In data set [1] (male, CD-1, 50 mg/kg, read-out: Tmax), the Tmax (usually the time at which the peak concentration occurs) was 30 min.
`O=C(CCCCCc1ccccc1)N[C@H]1CC[C@H](O)CC1` [Compound 1, N-(trans-4-hydroxycyclohexyl)-6-phenylhexanamide, reference compound]: in data set [1] (50 mg/kg), the “Tmax” value was found to be 30 min.
In the case of `O=C(N[C@H]1CC[C@H](O)CC1)[C@@H]1C[C@H]1CCCc1ccccc1` [Compound 2A, (1R,2R)-N-((1r,4R)-4-hydroxycyclohexyl)-2-(3-phenylpropyl)cyclopropane-1-carboxamide], the “activity toward promoting mitofusin activation” value on MFN2 is on record as “active toward promoting mitofusin activation”.

Values taken from patent US20240199534A1 (Mitochondria Emotion, Inc., priority 2021, published 2024).
